Patent publication US20230312587A1, “PTERIDINONE COMPOUNDS AND USES THEREOF” (Vertex Pharmaceutical Incorporated, priority 2018, published 2023)
Where two headings read alike, the source gives them in different places.

Tests used:
Assay type in all cases: cell-based
HepG2 XBP1(u)-Luc cells = test: HepG2 XBP1 reporter assay; conditions: Homo sapiens, 6 h
Procedure, shortened: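 Reporter cells are HepG2 stably carrying unspliced XBP1 fused to firefly luciferase, which becomes in-frame after IRE1alpha-mediated splicing. SteadyGlo luminescence was normalized to DMSO-treated cells for IC50 calculation.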

HepG2 parental = test: In vitro cell viability (CellTiter-Glo), HepG2 parental; conditions: 96 hours, read-out: HepG2 viability
Experimental: (§1) HEK293 cells containing empty pCLPCx vector (HEK293 empty), HEK293 cells stably over-expression WFS1 (HEK293 WFS1), HepG2, and HepG2 cells where WFS1 was depleted via CRISPR/Cas9 (HepG2 WFS1 KO) cells were plated into 96-well black plates (Corning, product #3904) in 100 microliters of complete DMEM cell culture media [DMEM (Life Technologies, product #11960-051) media supplemented with 10% FBS (Hyclone, catalog #SH30071.03), antimycotic/antibiotic (Life Technologies, product #15240-062), and Glutamax (Life Technologies, product #35050-061)] at 1,000 (HEK293) or 5,000 (HepG2) cells per well. Cells were allowed to attach and grow overnight, after which compounds are added at various concentrations. Cell viability was assessed 96 hrs after compound addition with CellTiter-Glo reagent (Promega, catalog #G7570) according to manufacturer's protocol and measurement on a Pherastar luminescence plate reader (BMG Labtech).
To determine the effect of WFS1 depletion on compound mediated inhibition of cell viability, parental HepG2 cells and HepG2 cells where WFS1 was deleted by CRISPR/Cas9 were exposed to increasing concentrations of either Compound 136 or Compound 253 for 96 hours after which time viability was determined using Cell Titer Glo reagent (Promega). […] The IC50s for the viability of both the HepG2 parental and WFS1 knockout cells are summarized in Table 47: A<0.5 μM; 0.5 μM≤<2.0 μM; 2.0 μM≤C<10.0 μM; D≥[…].

Hek293 empty vector = test: In vitro cell viability (CellTiter-Glo), Hek293 empty vector; conditions: read-out: Hek293 empty vector viability
Experimental: (§2) HEK293 (ATCC, catalog #CRL-1573) cells are plated in 10 cm dishes (Corning, product #430167) into 10 mL of complete DMEM cell culture media [DMEM (Life Technologies, product #11960-051) media supplemented with 10% FBS (Hyclone, catalog #SH30071.03), antimycotic/antibiotic (Life Technologies, product #15240-062), and Glutamax (Life Technologies, product #35050-061)] at 3×10^6 cells per dish. Cells are allowed to attach and grow overnight at 37° C. in humidified 5% CO2. Cells are co-transfected with pVSV-G, pCMV-Gag/Pol and pCLPCX_WFS1 using Fugene 6 (Promega, catalog #E2691) according to manufacturer's protocol. Separately, cells are co-transfected with pVSV-G, pCMV-Gag/Pol and pCLPCX to produce control retrovirus. Cell culture media containing retrovirus (viral supernatant) is collected at 48 and 72 hours following transfection, filtered through a 0.4 uM filter, and stored at −80° C.
(§3) HEK293 cells are plated in 6 well plates (Corning, product #3516) in 2 mL of complete DMEM cell culture media at 1×10^5 cells well and allowed to attach and grow overnight at 37° C. in humidified 5% CO2. The following day, the media is replaced with viral supernatant to which 10 ug/ml of Polybrene® (Santa Cruz Biotech, catalog #sc-134220) is added. Viral supernatant is replaced 24 hours later with complete DMEM media. Transduced cells are selected in complete DMEM cell culture media containing 1 microgram/mL of puromycin (Life Technologies, catalog #A1113803).
as §1
(§4) The IC50s for the viability of both the Hek293 empty vector and WFS1 over-expressing cells are summarized in Table 47: A<0.06 μM; 0.06 μM≤B<0.6 μM; 0.6 μM≤C<3.0 μM; D≥3.0 μM.

[1] = system: Hek293 WFS1 over-expressor; test: In vitro cell viability (CellTiter-Glo), Hek293 WFS1 over-expressor; conditions: read-out: Hek293 WFS1 viability
Experimental: WFS1 cDNA is amplified from clone RC202901 (Origene Technologies) with primers 5′-TCCGCGGCCCCAAGCTTATCGCCATGGACTCCAACACTGC-3′ (SEQ ID NO: 1), 5′-GATGGGCCCAGATCTCGAGTCAGGCCGCCGACAGGAATG-3′ (SEQ ID NO: 2) and cloned into a retroviral mammalian expression vector pCLPCX using HD Infusion (CLONTECH) at Hind3-Xhol sites using standard procedures. The resulting clone is identified as pCLPCX_WFS1.
as §2, §3, §1, §4

Colo-205 cells = test: Calcium flux assay (FLIPR Calcium 5); conditions: FLIPR Calcium 5, measured over 36 minutes
Experimental: Compounds described herein induced ER stress by causing intracellular calcium flux. Calcium flux was measured in Colo-205 cells using the FLTPR® Calcium 5 Assay Kit according to manufacter's protocol (Molecular Devices, Cat. #R8186) on a FLIPR3 system (Molecular Devices). Calcium flux is measured over 36 minutes. The Colo-205 calcium flux assay data are summarized in Table 47: A<0.6 μM; 0.6 μM≤B<2.0 μM; 2.0 μM≤C<10.0 μM; D≥10.0 μM.

[2] = Homo sapiens, HEK293, Hek293 WFS1 over-expressing cells

Cc1nc(NCc2cnn(CCC3CCOCC3)c2)nc2c1NC(=O)[C@H](C)N2C [Compound 115, (7S)-4,7,8-trimethyl-2-(((1-(2-(tetrahydro-2H-pyran-4-yl)ethyl)-1H-pyrazol-4-yl)methyl)amino)-7,8-dihydropteridin-6(5H)-one]
IC50 (HepG2 XBP1(u)-Luc cells): ≥ 10000 nM
IC50 (HepG2 parental; Homo sapiens): ≥ 10000 nM
IC50 (Hek293 empty vector; Homo sapiens, HEK293): ≥ 3000 nM
IC50 [1, 2]: 600 to 3000 nM
EC50 (Colo-205 cells; Homo sapiens, COLO 205, 0.6 h): 2000 to 10000 nM

CCOc1ccc(CCn2cc(CNc3ncc4c(n3)N(C)[C@@H](C)C(=O)N4)cn2)cc1 [Compound 121, (7S)-2-(((1-(4-ethoxyphenethyl)-1H-pyrazol-4-yl)methyl)amino)-7,8-dimethyl-7,8-dihydropteridin-6(5H)-one]
IC50 (HepG2 XBP1(u)-Luc cells): 2000 to 10000 nM
IC50 (HepG2 parental; Homo sapiens): ≥ 10000 nM
IC50 (Hek293 empty vector; Homo sapiens, HEK293): ≥ 3000 nM
IC50 [1, 2]: 600 to 3000 nM
EC50 (Colo-205 cells; Homo sapiens, COLO 205, 0.6 h): 600 to 2000 nM

Cc1nc(NCc2cnn(C3CCN(C(=O)c4ccc(F)cc4)CC3)c2)nc2c1NC(=O)[C@H](C)N2C [Compound 125, (7S)-2-(((1-(1-(4-Fluorobenzoyl)piperidin-4-yl)-1H-pyrazol-4-yl)methyl)amino)-4,7,8-trimethyl-7,8-dihydropteridin-6(5H)-one]
IC50 (HepG2 XBP1(u)-Luc cells): ≥ 10000 nM
IC50 (HepG2 parental; Homo sapiens): 2000 to 10000 nM
IC50 (Hek293 empty vector; Homo sapiens, HEK293): ≥ 3000 nM
IC50 [1, 2]: 600 to 3000 nM
EC50 (Colo-205 cells; Homo sapiens, COLO 205, 0.6 h): 2000 to 10000 nM

Cc1nc(NCc2cnn(CC(C)(O)c3ccc(F)cc3)c2)nc2c1NC(=O)[C@H](C)N2C (stereo partly drawn) [Compound 128, (7S)-2-(((1-(2-(4-fluorophenyl)-2-hydroxypropyl)-1H-pyrazol-4-yl)methyl)amino)-4,7,8-trimethyl-7,8-dihydropteridin-6(5H)-one]
IC50 (HepG2 XBP1(u)-Luc cells): 2000 to 10000 nM
IC50 (HepG2 parental; Homo sapiens): 2000 to 10000 nM
IC50 (Hek293 empty vector; Homo sapiens, HEK293): ≥ 3000 nM
IC50 [1, 2]: 600 to 3000 nM
EC50 (Colo-205 cells; Homo sapiens, COLO 205, 0.6 h): 2000 to 10000 nM

Cc1nc(N[C@H]2C[C@@H](COc3cc(F)c(F)c(F)c3)C2)nc2c1NC(=O)[C@H](C)N2C [Compound 257, (7S)-4,7,8-Trimethyl-2-((cis-3-((3,4,5-trifluorophenoxy)methyl)cyclobutyl)-amino)-7,8-dihydropteridin-6(5H)-one]
IC50 (HepG2 parental; Homo sapiens): 2000 to 10000 nM
IC50 (Hek293 empty vector; Homo sapiens, HEK293): ≥ 3000 nM
IC50 [1, 2]: < 60 nM
EC50 (Colo-205 cells; Homo sapiens, COLO 205, 0.6 h): 600 to 2000 nM

Cc1nc(N[C@H]2C[C@H](COc3cc(F)c(F)c(F)c3)C2)nc2c1NC(=O)[C@H](C)N2C [Compound 258, (7S)-4,7,8-trimethyl-2-((trans-3-((3,4,5-trifluorophenoxy)methyl)-cyclobutyl)amino)-7,8-dihydropteridin-6(5H)-one]
IC50 (HepG2 parental; Homo sapiens): 2000 to 10000 nM
IC50 (Hek293 empty vector; Homo sapiens, HEK293): ≥ 3000 nM
IC50 [1, 2]: 60 to 600 nM
EC50 (Colo-205 cells; Homo sapiens, COLO 205, 0.6 h): 600 to 2000 nM

Cc1nc(N[C@@H]2CC[C@@H](Oc3cc(F)c(F)c(F)c3)C2)nc2c1N(C)C(=O)[C@H](C)N2C [Compound 272, (S)-4,5,7,8-tetramethyl-2-(((1R,3R)-3-(3,4,5-trifluorophenoxy)cyclopentyl)amino)-7,8-dihydropteridin-6(5H)-one]
IC50 (HepG2 parental; Homo sapiens): < 500 nM
IC50 (Hek293 empty vector; Homo sapiens, HEK293): ≥ 3000 nM
IC50 [1, 2]: < 60 nM
EC50 (Colo-205 cells; Homo sapiens, COLO 205, 0.6 h): 600 to 2000 nM

(7S)-4,7,8-trimethyl-2-((trans-3-(3,4-difluorophenoxy)cyclobutyl)amino)-7,8-dihydropteridin-6(5H)-one [Compound 251]
IC50 (HepG2 parental): ≥ 10000 nM
IC50 (Hek293 empty vector; Hek293 empty vector): ≥ 3000 nM
IC50 ([1]; Hek293 WFS1 over-expressing cells): 60 to 600 nM
EC50 (Colo-205 cells): 600 to 2000 nM
